These molecules were tested against T1, ligand binding domain of human RORγ (A262-S507) (Homo sapiens, UniProt P51449) (assay: General RORγ SPA binding assay (competition with [3H]25-hydroxycholesterol)). Conditions: RORγ SPA binding assay, inhibition of [3H]25-hydroxycholesterol binding; read-out: IC50.
T1 construct: made in house; host or cells: E. coli
T1 sequence (P51449 262-507): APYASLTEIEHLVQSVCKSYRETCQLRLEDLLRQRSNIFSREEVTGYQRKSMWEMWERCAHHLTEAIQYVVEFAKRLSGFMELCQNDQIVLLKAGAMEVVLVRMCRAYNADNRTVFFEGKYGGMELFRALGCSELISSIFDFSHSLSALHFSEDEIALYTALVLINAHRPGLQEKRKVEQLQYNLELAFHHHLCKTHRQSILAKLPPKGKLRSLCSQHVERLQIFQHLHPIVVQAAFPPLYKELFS
Procedure, shortened: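 N-terminally His-tagged protein was expressed in E. coli and nickel-purified. Then 50 nM protein was preincubated with compound for 15 min at room temperature in PBS with 0.5% fatty acid free BSA, followed by radioligand for 15 min and copper His-tag SPA beads for 30 min. IC50 came from percent inhibition of binding.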

IC50 [nM]	Compound
47.8	CCNC(=O)NCC(O)(COc1cccc(C(F)(F)F)n1)c1cnc(C)nc1C1CCN(C(=O)Nc2c(F)cccc2F)CC1 (centres unmarked) [Compound N36, N-(2,6-Difluorophenyl)-4-{5-[2-{[(ethylamino)carbonyl]amino}-1-hydroxy-1-({[6-(trifluoromethyl)pyridin-2-yl]oxy}methyl)ethyl]-2-methylpyrimidin-4-yl}piperidine-1-carboxamide]
36.9	CC(=O)NCC(O)(COc1cccc(C(F)(F)F)n1)c1cnc(C)nc1C1CCN(C(=O)Nc2c(F)cccc2F)CC1 (centres unmarked) [Compound N37, 4-{5-[2-(Acetylamino)-1-hydroxy-1-({[6-(trifluoromethyl)pyridin-2-yl]oxy}methyl)ethyl]-2-methylpyrimidin-4-yl}-N-(2,6-difluorophenyl)piperidine-1-carboxamide]
57.9	CC(=O)NCCNCC(O)(COc1cccc(C(F)(F)F)n1)c1cnc(C)nc1C1CCN(C(=O)Nc2c(F)cccc2F)CC1 (centres unmarked) [Compound N38, 4-{5-[2-{[2-(Acetylamino)ethyl]amino}-1-hydroxy-1-({[6-(trifluoromethyl)pyridin-2-yl]oxy}methyl)ethyl]-2-methylpyrimidin-4-yl}-N-(2,6-difluorophenyl)piperidine-1-carboxamide]
84.1	CC(=O)N1CCN(CC(O)(COc2cccc(C(F)(F)F)n2)c2cnc(C)nc2C2CCN(C(=O)Nc3c(F)cccc3F)CC2)CC1 (centres unmarked) [Compound N39, 4-{5-[2-(4-Acetylpiperazin-1-yl)-1-hydroxy-1-({[6-(trifluoromethyl)pyridin-2-yl]oxy}methyl)ethyl]-2-methylpyrimidin-4-yl}-N-(2,6-difluorophenyl)piperidine-1-carboxamide]
134	CC(=O)N1CCC(NCC(O)(COc2cccc(C(F)(F)F)n2)c2cnc(C)nc2C2CCN(C(=O)Nc3c(F)cccc3F)CC2)C1 (centres unmarked) [Compound N40, 4-(5-{2-[(1-Acetylpyrrolidin-3-yl)amino]-1-hydroxy-1-({[6-(trifluoromethyl)pyridin-2-yl]oxy}methyl)ethyl}-2-methylpyrimidin-4-yl)-N-(2,6-difluorophenyl)piperidine-1-carboxamide]
150	CC(=O)NCCC(=O)NCC(O)(COc1cccc(C(F)(F)F)n1)c1cnc(C)nc1C1CCN(C(=O)Nc2c(F)cccc2F)CC1 (stereo not drawn) [Compound N41, 4-(5-{2-[(N-Acetyl-beta-alanyl)amino]-1-hydroxy-1-({[6-(trifluoromethyl)pyridin-2-yl]oxy}methyl)ethyl}-2-methylpyrimidin-4-yl)-N-(2,6-difluorophenyl)piperidine-1-carboxamide]
183	Cc1ncc(C(O)(CNC(=O)CCO)COc2cccc(C(F)(F)F)n2)c(C2CCN(C(=O)Nc3c(F)cccc3F)CC2)n1 (centres unmarked) [Compound N42, N-(2,6-Difluorophenyl)-4-(5-{1-hydroxy-2-[(3-hydroxypropanoyl)amino]-1-({[6-(trifluoromethyl)pyridin-2-yl]oxy}methyl)ethyl}-2-methylpyrimidin-4-yl)piperidine-1-carboxamide]
9.2	CC(=O)NCC(O)(COc1cccc(C(F)(F)F)n1)c1cnc(C)nc1C1CCN(C(=O)Oc2ccccc2F)CC1 (centres unmarked) [Compound N43, 2-Fluorophenyl 4-{5-[2-(acetylamino)-1-hydroxy-1-({[6-(trifluoromethyl)pyridin-2-yl]oxy}methyl)ethyl]-2-methylpyrimidin-4-yl}piperidine-1-carboxylate]
899	Cc1ncc(C(O)(COc2cccc(C(F)(F)F)n2)C(=O)O)c(C2CCN(C(=O)Nc3c(F)cccc3F)CC2)n1 (centres unmarked) [Compound N44, 2-[4-(1-{[(2,6-Difluorophenyl)amino]carbonyl}piperidin-4-yl)-2-methylpyrimidin-5-yl]-2-hydroxy-3-{[6-(trifluoromethyl)pyridin-2-yl]oxy}propanoic acid]
81.9	CNC(=O)C(O)(COc1cccc(C(F)(F)F)n1)c1cnc(C)nc1C1CCN(C(=O)Nc2c(F)cccc2F)CC1 (centres unmarked) [Compound N45, N-(2,6-Difluorophenyl)-4-{5-[1-hydroxy-2-(methylamino)-2-oxo-1-({[6-(trifluoromethyl)pyridin-2-yl]oxy}methyl)ethyl]-2-methylpyrimidin-4-yl}piperidine-1-carboxamide]
39	CC(=O)NCC(O)(COc1cccc(C(F)(F)F)n1)c1cnc(C)nc1C1CCN(C(=O)Oc2ccc(F)cc2)CC1 (centres unmarked) [Compound N46, 4-Fluorophenyl 4-{5-[2-(acetylamino)-1-hydroxy-1-({[6-(trifluoromethyl)pyridin-2-yl]oxy}methyl)ethyl]-2-methylpyrimidin-4-yl}piperidine-1-carboxylate]
3.6	CC(=O)NCC(O)(COc1cccc(C(F)(F)F)n1)c1cnc(C)nc1C1CCN(C(=O)Oc2c(F)cccc2F)CC1 (centres unmarked) [Compound N47, 2,6-Difluorophenyl 4-{5-[2-(acetylamino)-1-hydroxy-1-({[6-(trifluoromethyl)pyridin-2-yl]oxy}methyl)ethyl]-2-methylpyrimidin-4-yl}piperidine-1-carboxylate]
5.6	Cc1ncc(C(N)(C#N)COc2cccc(C(F)(F)F)n2)c(C2CCN(C(=O)Nc3c(F)cccc3F)CC2)n1 (centres unmarked) [Compound N48, 4-[5-(1-Amino-1-cyano-2-{[6-(trifluoromethyl)pyridin-2-yl]oxy}ethyl)-2-methylpyrimidin-4-yl]-N-(2,6-difluorophenyl)piperidine-1-carboxamide]
176	Cc1ncc(C(N)(COc2cccc(C(F)(F)F)n2)C(N)=O)c(C2CCN(C(=O)Nc3c(F)cccc3F)CC2)n1 (centres unmarked) [Compound N49, 4-{5-[1,2-Diamino-2-oxo-1-({[6-(trifluoromethyl)pyridin-2-yl]oxy}methyl)ethyl]-2-methylpyrimidin-4-yl}-N-(2,6-difluorophenyl)piperidine-1-carboxamide]
290	Cc1ncc(C2(C)CN(c3ccnc(C(F)(F)F)n3)C(=O)O2)c(C2CCN(C(=O)Cc3c(F)cccc3F)CC2)n1 (centres unmarked) [Compound N50, 5-(4-{1-[(2,6-Difluorophenyl)acetyl]piperidin-4-yl}-2-methylpyrimidin-5-yl)-5-methyl-3-[2-(trifluoromethyl)pyrimidin-4-yl]-1,3-oxazolidin-2-one]
4.9	Cc1ncc(C2(COc3cccc(C(F)(F)F)n3)CCO2)c(C2CCN(C(=O)Nc3c(F)cccc3F)CC2)n1 (centres unmarked) [Compound N51, N-(2,6-Difluorophenyl)-4-{2-methyl-5-[2-({[6-(trifluoromethyl)pyridin-2-yl]oxy}methyl)oxetan-2-yl]pyrimidin-4-yl}piperidine-1-carboxamide]
13.8	Cc1ncc(C2(COc3cccc(C(F)(F)F)n3)CNC(=O)O2)c(C2CCN(C(=O)Nc3c(F)cccc3F)CC2)n1 (centres unmarked) [Compound N52, N-(2,6-Difluorophenyl)-4-{2-methyl-5-[2-oxo-5-({[6-(trifluoromethyl)pyridin-2-yl]oxy}methyl)-1,3-oxazolidin-5-yl]pyrimidin-4-yl}piperidine-1-carboxamide]

Source: US10035790B2, “RORγ modulators” (BRISTOL-MYERS SQUIBB COMPANY, priority 2012, dated 2018)
